Reference: US20100292266A1, “Oxazolyl Piperidine Modulators of Fatty Acid Amide Hydrolase” (priority 2006, published 2010)

Biological target: T1, Rat FAAH (Rattus norvegicus, UniProt P97612)
T1 construct: expressed in transfected cells
T1 sequence (P97612 1-579): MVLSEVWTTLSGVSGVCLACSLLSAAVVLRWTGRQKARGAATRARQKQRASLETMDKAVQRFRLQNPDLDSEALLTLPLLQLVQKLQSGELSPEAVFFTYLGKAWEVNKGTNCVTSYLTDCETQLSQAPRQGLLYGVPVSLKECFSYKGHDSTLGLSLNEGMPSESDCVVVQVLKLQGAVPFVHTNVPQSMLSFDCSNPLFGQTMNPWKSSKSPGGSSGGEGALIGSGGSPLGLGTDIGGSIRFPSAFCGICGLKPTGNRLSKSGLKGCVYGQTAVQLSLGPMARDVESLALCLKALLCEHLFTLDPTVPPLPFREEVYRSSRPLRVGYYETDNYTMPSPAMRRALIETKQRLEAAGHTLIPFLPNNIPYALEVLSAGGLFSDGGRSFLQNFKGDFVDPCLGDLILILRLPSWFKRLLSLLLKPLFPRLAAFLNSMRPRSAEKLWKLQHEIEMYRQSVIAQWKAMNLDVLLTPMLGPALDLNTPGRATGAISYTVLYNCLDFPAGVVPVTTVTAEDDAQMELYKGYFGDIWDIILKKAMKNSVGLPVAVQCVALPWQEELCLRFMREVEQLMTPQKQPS
Assay: Assay Method 2: FAAH assay, 3H-anandamide hydrolysis in cell homogenate
Type: biochemical
Conditions: transfected SK-N-MC cell homogenate, 80 nM 3H-AEA, 1 h rt, > = solubility limit or highest concentration tested
Summary of the method: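 Homogenate of SK-N-MC cells stably transfected with rat FAAH cDNA (G418-selected clones) incubated with compound and 80 nM final [3H]-anandamide for 1 h. Released [3H]-ethanolamine separated on activated charcoal filters by centrifugation and counted by scintillation. ">" values mark solubility limit or top concentration tested.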

| Structure (SMILES) | IC50 [nM] |
| --- | --- |
| O=C(c1ncco1)C1CCN(C(=O)c2ccc(Cl)cc2)CC1 [Example 11, [1-(4-Chloro-benzoyl)-piperidin-4-yl]-oxazol-2-yl-methanone] | 7500 |
| O=C(c1ncco1)C1CCN(Cc2cccc(F)c2)CC1 [Example 31, [1-(3-Fluoro-benzyl)-piperidin-4-yl]-oxazol-2-yl-methanone] | 1400 |
| O=C(c1ncco1)C1CCN(Cc2ccc(F)cc2)CC1 [Example 30, [1-(4-Fluoro-benzyl)-piperidin-4-yl]-oxazol-2-yl-methanone] | 873 |
| O=C(c1ncco1)C1CCN(Cc2ccccc2F)CC1 [Example 32, [1-(2-Fluoro-benzyl)-piperidin-4-yl]-oxazol-2-yl-methanone] | > 10000 |
| COc1ccc2cc(CN3CCC(C(=O)c4ncco4)CC3)ccc2c1 [Example 46, [1-(6-Methoxy-naphthalen-2-ylmethyl)-piperidin-4-yl]-oxazol-2-yl-methanone] | 219 |
| Cn1c(CN2CCC(C(=O)c3ncco3)CC2)nc2ccccc21 [Example 49, [1-(1-Methyl-1H-benzoimidazol-2-ylmethyl)-piperidin-4-yl]-oxazol-2-yl-methanone] | 91 |
| O=C(c1ncco1)C1CCN(Cc2ccc3cccnc3n2)CC1 [Example 41, (1-[1,8]Naphthyridin-2-ylmethyl-piperidin-4-yl)-oxazol-2-yl-methanone] | 1750 |
| O=C(c1ncco1)C1CCN(Cc2cnc3ccccc3n2)CC1 [Example 78, Oxazol-2-yl-(1-quinoxalin-2-ylmethyl-piperidin-4-yl)-methanone] | 90 |
| COc1ccc(C(=O)N2CCC(C(=O)c3ncco3)CC2)cc1 [Example 9, [1-(4-Methoxy-benzoyl)-piperidin-4-yl]-oxazol-2-yl-methanone] | > 10000 |
| O=C(c1ncco1)C1CCN(Cc2ccccc2Br)CC1 [Example 53, [1-(2-Bromo-benzyl)-piperidin-4-yl]-oxazol-2-yl-methanone] | 320 |
| O=C(c1ncco1)C1CCN(C(=O)c2ccc3ccccc3c2)CC1 [Example 10, [1-(Naphthalene-2-carbonyl)-piperidin-4-yl]-oxazol-2-yl-methanone] | 350 |
| O=C(c1ncco1)C1CCN(Cc2nc3ccccc3cc2Cl)CC1 [Example 80, [1-(3-Chloro-quinolin-2-ylmethyl)-piperidin-4-yl]-oxazol-2-yl-methanone] | 70 |
| O=C(c1ncco1)C1CCN(Cc2cccc3ccccc23)CC1 [Example 48, (1-Naphthalen-1-ylmethyl-piperidin-4-yl)-oxazol-2-yl-methanone] | 63 |
| O=C(c1ncco1)C1CCN(Cc2ccc(F)c(F)c2)CC1 [Example 38, [1-(3,4-Difluoro-benzyl)-piperidin-4-yl]-oxazol-2-yl-methanone] | 76 |
| Cn1ccc2ccc(CN3CCC(C(=O)c4ncco4)CC3)cc21 [Example 40, [1-(1-Methyl-1H-indol-6-ylmethyl)-piperidin-4-yl]-oxazol-2-yl-methanone] | 385 |

System: not given
Assay: not given
Conditions: model of multiple sclerosis, Baker 2001; cited from earlier work

| Structure (SMILES) | spasticity in CREAE mice |
| --- | --- |
| CCCCCCCCCCCCCCCCS(=O)(=O)F [AM374] | significantly reduce spasticity |

Biological target: T2, FAAH (Homo sapiens, UniProt O00519)
T2 sequence (O00519 1-579): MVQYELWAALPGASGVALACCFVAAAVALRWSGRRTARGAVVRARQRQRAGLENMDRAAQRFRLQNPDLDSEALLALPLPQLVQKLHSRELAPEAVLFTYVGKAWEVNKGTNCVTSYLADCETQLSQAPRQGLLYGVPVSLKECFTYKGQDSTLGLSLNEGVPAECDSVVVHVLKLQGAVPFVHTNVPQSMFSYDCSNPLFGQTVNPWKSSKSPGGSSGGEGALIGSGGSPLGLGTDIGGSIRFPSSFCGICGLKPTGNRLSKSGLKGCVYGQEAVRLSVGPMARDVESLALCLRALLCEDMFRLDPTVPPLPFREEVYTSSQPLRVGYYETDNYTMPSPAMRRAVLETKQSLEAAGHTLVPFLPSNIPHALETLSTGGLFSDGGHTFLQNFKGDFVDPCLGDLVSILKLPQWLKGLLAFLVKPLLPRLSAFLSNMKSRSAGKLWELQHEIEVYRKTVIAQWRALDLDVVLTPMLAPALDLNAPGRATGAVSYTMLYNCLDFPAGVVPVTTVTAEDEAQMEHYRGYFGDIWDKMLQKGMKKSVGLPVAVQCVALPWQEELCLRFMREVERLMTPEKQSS
Assay: Assay Method 1: FAAH assay, 3H-anandamide hydrolysis in cell homogenate
Type: biochemical
Parameters: expressed in transfected cells
Conditions: T84 or transfected SK-N-MC cell homogenate, 80 nM 3H-AEA, 1 h rt, > = solubility limit or highest concentration tested
Summary of the method: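 Homogenate of SK-N-MC cells stably transfected with human FAAH, incubated with compound and 80 nM final ³H-anandamide for 1 h at rt. Released ³H-ethanolamine separated from substrate on activated charcoal and counted by scintillation. ">" values reflect solubility limit or top concentration tested.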

| Structure (SMILES) | IC50 [nM] |
| --- | --- |
| O=C(c1ncco1)C1CCN(C(=O)c2ccc(Cl)cc2)CC1 [Example 11, [1-(4-Chloro-benzoyl)-piperidin-4-yl]-oxazol-2-yl-methanone] | 2150 |
| O=C(c1ncco1)C1CCN(Cc2cccc(F)c2)CC1 [Example 31, [1-(3-Fluoro-benzyl)-piperidin-4-yl]-oxazol-2-yl-methanone] | 303 |
| O=C(c1ncco1)C1CCN(Cc2ccc(F)cc2)CC1 [Example 30, [1-(4-Fluoro-benzyl)-piperidin-4-yl]-oxazol-2-yl-methanone] | 148 |
| O=C(c1ncco1)C1CCN(Cc2ccccc2F)CC1 [Example 32, [1-(2-Fluoro-benzyl)-piperidin-4-yl]-oxazol-2-yl-methanone] | 1500 |
| COc1ccc2cc(CN3CCC(C(=O)c4ncco4)CC3)ccc2c1 [Example 46, [1-(6-Methoxy-naphthalen-2-ylmethyl)-piperidin-4-yl]-oxazol-2-yl-methanone] | 260 |
| Cn1c(CN2CCC(C(=O)c3ncco3)CC2)nc2ccccc21 [Example 49, [1-(1-Methyl-1H-benzoimidazol-2-ylmethyl)-piperidin-4-yl]-oxazol-2-yl-methanone] | 37 |
| O=C(c1ncco1)C1CCN(Cc2ccc3cccnc3n2)CC1 [Example 41, (1-[1,8]Naphthyridin-2-ylmethyl-piperidin-4-yl)-oxazol-2-yl-methanone] | 309 |
| O=C(c1ncco1)C1CCN(Cc2cnc3ccccc3n2)CC1 [Example 78, Oxazol-2-yl-(1-quinoxalin-2-ylmethyl-piperidin-4-yl)-methanone] | 30 |
| COc1ccc(C(=O)N2CCC(C(=O)c3ncco3)CC2)cc1 [Example 9, [1-(4-Methoxy-benzoyl)-piperidin-4-yl]-oxazol-2-yl-methanone] | 7000 |
| O=C(c1ncco1)C1CCN(Cc2ccccc2Br)CC1 [Example 53, [1-(2-Bromo-benzyl)-piperidin-4-yl]-oxazol-2-yl-methanone] | 85 |
| O=C(c1ncco1)C1CCN(C(=O)c2ccc3ccccc3c2)CC1 [Example 10, [1-(Naphthalene-2-carbonyl)-piperidin-4-yl]-oxazol-2-yl-methanone] | 28 |
| O=C(c1ncco1)C1CCN(Cc2nc3ccccc3cc2Cl)CC1 [Example 80, [1-(3-Chloro-quinolin-2-ylmethyl)-piperidin-4-yl]-oxazol-2-yl-methanone] | 16 |
| O=C(c1ncco1)C1CCN(Cc2cccc3ccccc23)CC1 [Example 48, (1-Naphthalen-1-ylmethyl-piperidin-4-yl)-oxazol-2-yl-methanone] | 101 |
| O=C(c1ncco1)C1CCN(Cc2ccc(F)c(F)c2)CC1 [Example 38, [1-(3,4-Difluoro-benzyl)-piperidin-4-yl]-oxazol-2-yl-methanone] | 30 |
| Cn1ccc2ccc(CN3CCC(C(=O)c4ncco4)CC3)cc21 [Example 40, [1-(1-Methyl-1H-indol-6-ylmethyl)-piperidin-4-yl]-oxazol-2-yl-methanone] | 94 |

Biological target: T2, FAAH
Assay: not given
Conditions: WO 04/033652; cited from earlier work

| Structure (SMILES) | inhibition of FAAH |
| --- | --- |
| O=C(CCCCCCc1ccccc1)c1ncc(-c2ccccn2)o1 [OL-135] | potent inhibitor of FAAH |

System: not given
Assay: not given
Conditions: rats; WO 04/033652; cited from earlier work

| Structure (SMILES) | analgesic activity in tail emersion test of thermal nociception |
| --- | --- |
| O=C(CCCCCCc1ccccc1)c1ncc(-c2ccccn2)o1 [OL-135] | analgesic activity |

System: not given
Assay: not given
Conditions: rats; WO 04/033652; cited from earlier work
Remark: another data set of the same source

| Structure (SMILES) | analgesic activity in hot plate test of thermal nociception |
| --- | --- |
| O=C(CCCCCCc1ccccc1)c1ncc(-c2ccccn2)o1 [OL-135] | analgesic activity |
